In patent US11519922B2, “Methods for identifying risk of chemotherapy-induced cardiotoxicity and targeted medical intervention” (Detroit R&D, Inc., priority 2018, dated 2022):
Entries after “also recorded” stand apart in the source; their conditions may differ.

Tests used:
[1] = tested on: plasma of breast cancer patients; test: Plasma troponin I (TnI) in breast cancer patients after DOX treatment; assay type: in vivo, human
rat heart tissue = test: Histological analysis of heart tissue of DOX-treated rats; assay type: in vivo; settings: DOX 3 mg/kg/week 2 weeks, 2-week recovery, 40× magnification
Procedure: Heart tissues were dehydrated, imbedded in paraffin and sliced. Slices were incubated in Mayer's hematoxylin reagent (ScyTek) for 5 min and covered with bluing reagent (ScyTek) for 15 seconds and eosin Y (ScyTek) solution for 3 minutes. Images of the rat cardiomyocyte were taken using a Zeiss Axiovert 200 microscope with RT Insight camera and SPOT Advanced Imaging software in 40× magnification at the Microscopy and Imaging Facility at Wayne State University.
Presence of vacuolization in heart tissue, a sign of cardiotoxicity (14), was not observed at 40× magnification.

rat serum = test: Serum fatty acid biomarkers by ELISA in DOX-treated female rats; assay type: in vivo; settings: DOX 3 mg/kg/week 2 weeks
Procedure: To verify that 14,15-DHET levels can be used as an early biomarker for prediction of DOX-dependent cardiotoxicity as previously found in the rat cardiomyocyte study (FIG. 1 and FIG. 2), levels of 14,15-DHET (sEH metabolite) in serum samples from control and DOX-treated rats with and without 2-week recovery were measured using a 14,15-DHET ELISA kit (Detroit R&D).
Levels of 20-HETE (CYP4A/4F-dependent hypertension biomarker) and 8-isoprostane (non-enzymatic oxidative stress biomarker) in rat serum samples were also measured using 20-HETE and 8-isoprostane ELISA kits, respectively, from Detroit R&D.
Biologically active fatty acids were extracted with ethyl acetate from 75 μl of serum samples (n=4) from control and DOX-treated animals with and without 2 weeks recovery. […] However, two weeks after the second injection (2 weeks recovery), when cardiotoxicity was still not detected, levels of 14,15-DHET (a metabolite of soluble epoxide hydrolase) and 8-isoprostane (non-enzymatic oxidative stress biomarker) were increased compared to the control group (FIG. 3B and FIG. 3D). No changes in levels of 20-HETE in rat serum samples between the two groups were observed (FIG. 3C).

[2] = Cardiotoxicity / LVEF in breast cancer patients after DOX treatment; assay type: in vivo, human
Source text: Chemotherapy-associated cardiotoxicity is defined as either a cardiomyopathy with a reduction of left ventricular ejection fraction (LVEF) ≥5% to <55% with symptoms of heart failure or an asymptomatic reduction of LVEF ≥10% to <55% by the Cardiac Review and Evaluation Committee (CREC) (7).

SMILES: COc1cccc2c1C(=O)c1c(O)c3c(c(O)c1C2=O)C[C@@](O)(C(=O)CO)C[C@@H]3O[C@H]1C[C@H](N)[C@H](O)[C@H](C)O1 [DOX, doxorubicin]
- plasma troponin I (TnI) levels ([1]; Patient #3, 3 months after 3 months of DOX treatment): increased
- plasma troponin I (TnI) levels ([1]; Patient #4, 3 months after 3 months of DOX treatment): decreased
- plasma troponin I (TnI) levels ([1]; Patients #1, #2 and #5 (no cardiotoxicity), 3 months after 3 months of DOX treatment): increased
- vacuolization / heart tissue damage (histology) (rat heart tissue): no vacuolization or heart tissue damage; also recorded: not observed
- Serum 20-HETE (rat serum; 2 weeks recovery): No change
- Serum 8-Isoprostane (rat serum; no recovery (~48 hr)): did not significantly change; also recorded: No change
- Serum 14,15-DHET (rat serum; no recovery (~48 hr)): did not significantly change; also recorded: No change
- Serum 20-HETE (rat serum; no recovery (~48 hr)): did not significantly change; also recorded: No change
- cardiotoxicity detected ([2]; 5 breast cancer patients, at completion of 3 months of DOX treatment): no cardiotoxicity
- reduction of LVEF ([2]; Patient #3, 3 months after 3 months of DOX treatment was completed): ~28%
- reduction of LVEF ([2]; Patient #4, 3 months after 3 months of DOX treatment was completed): 22%
- reduction of LVEF ([2]; Patients #3 and #4, 6 months after 3 months of DOX treatment was completed): around 20%
- reduction of LVEF ([2]; Patients #3 and #4, at 3 and 6 months after DOX treatment was completed): higher than 20%
- change of LVEF ([2]; the other patients (#1, #2, #5), at 3 and 6 months after DOX treatment): no significant changes
